# How the values were obtained:
# cotton = experiment: Upland soil application test (Test 2), crop injury; assay type: in vivo; details: 30 g ai/a, soil spray before emergence, 30 days later
# Summary of the method: (§1)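 Steps: fill pots with fertilized upland field soil containing uniformly mixed weed seed; sow crops and cover with 2-3 cm soil; after one day, spray the diluted wettable powder evenly over the soil at 10 l per are; assess at 30 days against untreated controls by dry weight.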
# peanut = experiment: Upland soil application test (Test 2), crop injury; assay type: in vivo; details: 30 g ai/a, soil spray before emergence, 30 days later
# Summary of the method: (§2)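 Soil-surface application of water-diluted wettable powder at 10 l per are, made one day after seeding and ahead of weed emergence. Plants stayed in the greenhouse for 30 days; injury was rated by air-dried weight versus untreated pots.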
# soybean = experiment: Upland soil application test (Test 2), crop injury; assay type: in vivo; details: 30 g ai/a, soil spray before emergence, 30 days later
# Summary of the method: as §1
# Sagittaria pygmaea [1] = experiment: Treatment of soil under submerged condition, pre-emergence (Test 4); assay type: in vivo; details: 30 g ai/a granule, 30 days later
# Summary of the method: (§3)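 Under submerged conditions, pots carrying weed propagules and transplanted young rice (2–3 leaves) were given a granulated test composition one day after planting, ahead of weed emergence. Plants grew in a greenhouse, with weed emergence and crop injury read 30 days after treatment.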
# barnyardgrass [2] = experiment: as above; assay type: in vivo; details: 30 g ai/a granule, 30 days later
# Summary of the method: as §3
# bulrush [3] = experiment: as above; assay type: in vivo; details: 30 g ai/a granule, 30 days later
# Summary of the method: as §3
# Sagittaria pygmaea [4] = experiment: Treatment of soil under submerged condition, post-emergence (Test 5); assay type: in vivo; details: 30 g ai/a granule, 30 days later
# Summary of the method: (§4)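 Granule applied to submerged greenhouse pots at two-leaf barnyardgrass; transplanted 2–3-leaf rice present; weed damage and rice injury graded 30 days on.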
# barnyardgrass [5] = experiment: as above; assay type: in vivo; details: 30 g ai/a granule, post-emergence (barnyardgrass two-leaf stage), 30 days later
# Summary of the method: as §4
# bulrush [6] = experiment: as above; assay type: in vivo; details: 30 g ai/a granule, 30 days later
# Summary of the method: as §4
# [7] = tested on: ALS (acetolactate syntase); experiment: ALS enzyme assay (Test 1); assay type: biochemical, pea; details: 1,000 ppm (0.5 mg/0.5 ml)
# Summary of the method: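 Partially purified ALS from dark-grown pea and barnyardgrass seedlings incubated 1 h at 30° C with pyruvate, TPP, MgCl2 and FAD. Compounds tested at 1,000 ppm (0.5 mg/0.5 ml). Acetoin formed detected colorimetrically at 525 nm via creatine/α-naphthol, relative to blank and acid-stopped controls.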
# foxtail meadow = experiment: Upland soil application test (Test 2); assay type: in vivo; details: 30 g ai/a, soil spray before emergence, 30 days later
# Summary of the method: as §2
# johnsongrass = experiment: Upland soil application test (Test 2); assay type: in vivo; details: 30 g ai/a, soil spray before emergence, 30 days later
# Summary of the method: as §2
# redroot pigweed = experiment: Upland soil application test (Test 2); assay type: in vivo; details: 30 g ai/a, soil spray before emergence, 30 days later
# Summary of the method: as §2
# large crabgrass = experiment: Upland soil application test (Test 2); assay type: in vivo; details: 30 g ai/a, soil spray before emergence, 30 days later
# Summary of the method: as §2
# barnyardgrass [8] = experiment: Upland soil application test (Test 2); assay type: in vivo; details: 30 g ai/a, soil spray before emergence, 30 days later
# Summary of the method: as §2
# common lambsquarters = experiment: Upland soil application test (Test 2); assay type: in vivo; details: 30 g ai/a, soil spray before emergence, 30 days later
# Summary of the method: as §2
# green foxtail = experiment: Upland soil application test (Test 2); assay type: in vivo; details: 30 g ai/a, soil spray before emergence, 30 days later
# Summary of the method: as §2
# rice = experiment: Treatment of soil under submerged condition, pre-emergence (Test 4), injury; assay type: in vivo; details: 30 g ai/a granule, 30 days later
# Summary of the method: as §3
Inhibitory activity (%) Pea [7],SMILES,Injury Cotton (cotton),Injury Peanut (peanut),Injury Soybean (soybean),Herbicidal effects Sagittaria Pygmaea (Sagittaria pygmaea [1]),Herbicidal effects Barnyardgrass (barnyardgrass [2]),Herbicidal effects Bulrush (bulrush [3]),Herbicidal effects Sagittaria Pygmaea (Sagittaria pygmaea [4]),Herbicidal effects Barnyardgrass (barnyardgrass [5]),Herbicidal effects Bulrush (bulrush [6]),Herbicidal effects Foxtail meadow (foxtail meadow),Herbicidal effects Johnsongrass (johnsongrass),Herbicidal effects Redroot pigweed (redroot pigweed),Herbicidal effects Large crabgrass (large crabgrass),Herbicidal effects Barnyardgrass (barnyardgrass [8]),Herbicidal effects Common lambsquarters (common lambsquarters),Herbicidal effects Green foxtail (green foxtail),Injury Rice (rice)
0%,COc1cc(OC)nc(Oc2ccccc2C=NOCC=C(C)C)n1 [Compound No. 7],0 (91-100 (No damages)),0 (91-100 (No damages)),0 (91-100 (No damages)),5 (0-5 (Death)),5 (0-5 (Death)),4 (6-10 (Severe damages)),3 (11-40 (Medium damages)),5 (0-5 (Death)),5 (0-5 (Death)),5 (0-5 (Death)),5 (0-5 (Death)),4 (6-10 (Severe damages)),5 (0-5 (Death)),5 (0-5 (Death)),4 (6-10 (Severe damages)),5 (0-5 (Death)),1 (71-90 (Slight damages))
0%,CC#CCON=Cc1ccccc1Oc1nc(OC)cc(OC)n1 [compound 10],0 (91-100 (No damages)),0 (91-100 (No damages)),0 (91-100 (No damages)),4 (6-10 (Severe damages)),5 (0-5 (Death)),4 (6-10 (Severe damages)),5 (0-5 (Death)),5 (0-5 (Death)),5 (0-5 (Death)),4 (6-10 (Severe damages)),4 (6-10 (Severe damages)),3 (11-40 (Medium damages)),3 (11-40 (Medium damages)),3 (11-40 (Medium damages)),3 (11-40 (Medium damages)),4 (6-10 (Severe damages)),1 (71-90 (Slight damages))
92%,"COc1cc(OC)nc(Oc2ccccc2C=O)n1 [B, reference compound]",5 (0-5 (Death)),5 (0-5 (Death)),5 (0-5 (Death)),5 (0-5 (Death)),3 (11-40 (Medium damages)),3 (11-40 (Medium damages)),4 (6-10 (Severe damages)),5 (0-5 (Death)),5 (0-5 (Death)),4 (6-10 (Severe damages)),4 (6-10 (Severe damages)),3 (11-40 (Medium damages)),4 (6-10 (Severe damages)),4 (6-10 (Severe damages)),3 (11-40 (Medium damages)),4 (6-10 (Severe damages)),5 (0-5 (Death))
0%,COc1cc(OC)nc(Oc2ccccc2C=NOCC#Cc2ccccc2)n1 [compound 42],0 (91-100 (No damages)),0 (91-100 (No damages)),0 (91-100 (No damages)),5 (0-5 (Death)),5 (0-5 (Death)),4 (6-10 (Severe damages)),5 (0-5 (Death)),5 (0-5 (Death)),4 (6-10 (Severe damages)),5 (0-5 (Death)),5 (0-5 (Death)),3 (11-40 (Medium damages)),4 (6-10 (Severe damages)),5 (0-5 (Death)),4 (6-10 (Severe damages)),5 (0-5 (Death)),0 (91-100 (No damages))
0%,"C#CCON=Cc1ccccc1Oc1nc(OC)cc(OC)n1 [Compound No. 13, 0-(2-propynyl)-2-(4,6-dimethoxy-2-pyrimidinyloxy)benzaldoxime]",0 (91-100 (No damages)),0 (91-100 (No damages)),0 (91-100 (No damages)),4 (6-10 (Severe damages)),4 (6-10 (Severe damages)),5 (0-5 (Death)),3 (11-40 (Medium damages)),5 (0-5 (Death)),4 (6-10 (Severe damages)),5 (0-5 (Death)),5 (0-5 (Death)),5 (0-5 (Death)),5 (0-5 (Death)),5 (0-5 (Death)),4 (6-10 (Severe damages)),5 (0-5 (Death)),1 (71-90 (Slight damages))
0%,COc1cc(OC)nc(Oc2ccccc2C=NOC2CCCCC2)n1 [Compound No. 3],0 (91-100 (No damages)),0 (91-100 (No damages)),0 (91-100 (No damages)),5 (0-5 (Death)),4 (6-10 (Severe damages)),4 (6-10 (Severe damages)),3 (11-40 (Medium damages)),3 (11-40 (Medium damages)),3 (11-40 (Medium damages)),3 (11-40 (Medium damages)),4 (6-10 (Severe damages)),3 (11-40 (Medium damages)),3 (11-40 (Medium damages)),3 (11-40 (Medium damages)),3 (11-40 (Medium damages)),4 (6-10 (Severe damages)),0 (91-100 (No damages))
11%,COc1cc(OC)nc(Oc2ccccc2C=NOCC=Cc2ccc(F)cc2)n1 [compound 29],0 (91-100 (No damages)),0 (91-100 (No damages)),0 (91-100 (No damages)),3 (11-40 (Medium damages)),3 (11-40 (Medium damages)),3 (11-40 (Medium damages)),4 (6-10 (Severe damages)),5 (0-5 (Death)),4 (6-10 (Severe damages)),4 (6-10 (Severe damages)),5 (0-5 (Death)),5 (0-5 (Death)),5 (0-5 (Death)),5 (0-5 (Death)),4 (6-10 (Severe damages)),4 (6-10 (Severe damages)),0 (91-100 (No damages))
0%,"COc1cc(OC)nc(Oc2ccccc2C=NOCC=Cc2cccc(C)c2)n1 [Compound No. 34, 0-(3-methylcinnamyl)-2-(4,6-dimethoxy-2-pyrimidinyloxy)benzaldoxime]",0 (91-100 (No damages)),0 (91-100 (No damages)),0 (91-100 (No damages)),5 (0-5 (Death)),4 (6-10 (Severe damages)),4 (6-10 (Severe damages)),3 (11-40 (Medium damages)),5 (0-5 (Death)),4 (6-10 (Severe damages)),5 (0-5 (Death)),5 (0-5 (Death)),4 (6-10 (Severe damages)),4 (6-10 (Severe damages)),5 (0-5 (Death)),4 (6-10 (Severe damages)),5 (0-5 (Death)),0 (91-100 (No damages))
